The source of these data is US20130123358A1, “Metabolic Benefits to Butyrate as a Chronic Diet Supplement” (priority 2009, published 2013).

Series [1] relates to brown adipose tissue PGC-1α and UCP-1. In words: Brown adipose tissue morphology, qRT-PCR and immunoblot. The format is in vivo, mouse. As for the experimental part:
Total RNA was extracted from frozen tissues (kept at −80° C.) using Tri-Reagent (T9424, Sigma) as described elsewhere (16). Taqman RT-PCR primer and probe were used to determine mRNA for PGC-1α (Mm00447183_m1), UCP-1 (Mm00494069_m1), PPARδ (Mm01305434_m1) and CPT1b (Mm00487200_m1). The reagents were purchased from Applied Biosystems (Foster City, Calif.). Mouse ribosome 18S rRNA_s1 (without intron-exon junction) was used as an internal control. Reaction was conducted with 7900 HT Fast real time PCR System (Applied Biosystems, Foster City, Calif.).
Fresh fat and muscles were collected and frozen in liquid nitrogen. The whole cell lysate protein was extract in lysis buffer with sonication and analyzed in western blot as described elsewhere (16). Antibodies were used in study of myoglobin (sc-25607, Santa Cruz), PGC-1 (sc-13068, Santa Cruz), Tubulin (ab7291, Abcam), myosin (M8421, Sigma), pAMPK (Thr 172, #2531, Cell signaling) and p-p38 (sc-7975, Santa Cruz). To detect multiple signals from one membrane, the membrane was stripped with a stripping buffer. Intensity of the immunoblot signal was quantified using a computer program, ImageJ 1.37v (NIH). The mean values of results from three experiments (6 mice each group) were presented. The antibodies to PGC-1α and UCP-1 were from Dr. Thomas Gettys at Pennington Biomedical Research Center, Baton Rouge, La.
Fresh tissues (muscle, fat and liver) were collected at 16 weeks of age after 12 weeks butyrate feeding and fixed in 10% neutral buffered formalin solution (HT50-1-2, Sigma). The tissue slides were obtained through serial cross-section cutting at 8 um thickness and processed with a standard procedure. Briefly, the slides were deparaffinated and stained in haematoxylin (#101542, Surgipath) for 15 min, and rinsed in water until sections are blue. Then, slides were stained in Eosin (E4009, Sigma), dehydrated quickly in 95% ethanol and treated with […]. The sections were mounted and photographed with Nikon microscope (Eclipse TS100, Japan).
In addition, the morphology and gene expression were examined in the brown fat of mice. Hematoxylin and eosin staining (H&E staining) was conducted on brown adipose tissues collected at 13 weeks on HFD. […] Compared to the control mice, the size of brown adipocytes was much smaller in the butyrate group (FIG. 4B), indicating a higher thermogenic activity that leads to the reduction in fat accumulation. Mitochondrial function is regulated by gene expression (24). To understand the molecular basis of the increased thermogenesis, the expression of two thermogenesis-related genes, such as PGC-1α and UCP-1, were examined in BAT. mRNA of both genes was increased in the butyrate-treated mice. Brown adipose tissues were collected at 13 weeks on HFD, and gene expression for PGC-1α and UCP-1 was examined by qRT-PCR. In addition, the corresponding proteins were assayed using a whole cell lysate (100 μg) resolved in SDS-PAGE and blotted with PGC-1α and UCP-1 antibodies. […] Data in FIGS. 4A-4D are presented as means±SE (n=9 mice). * P<0.05. This increase in gene expression provides a molecular basis for the enhanced thermogenesis by the butyrate treatment.
Background: Quantitative PCR measures a nucleic acid by following its amplification.

The next series deals with HDAC. In words: Histone deacetylase assay on muscle nuclear extracts of treated mice. The format is in vivo, mouse. To be noted: butyrate 5% w/w in HFD, 16 weeks on HFD, muscle nuclear extracts. As for the experimental part: Histone deacetylase assay were conducted according to the instruction from the manufacturer (#17-320, Upstate). Briefly, 10 ug of muscle nuclear extract (as an enzyme) was incubated with [3H]-acetyl CoA (#TRK688, Amersham) radio labeled histone H4 peptide (25,000 CPM, as a substrate) at 37° C. for 12 hours by shaking Released [3H]-acetate was measured using a scintillation counter. The nuclear extract was prepared according to a protocol described elsewhere (17). The muscle tissues were collected and snap-frozen in liquid nitrogen within 2 min of cervical dislocation of mice. Tissue samples were stored at −80° C. until further processing. The muscle sample of 200˜300 mg was cut into small pieces on dry ice and homogenized in 1 ml of lysate buffer. After centrifugation at 10,000 rpm for 1 minute at 4° C., the nucleus was pelleted and collected. After being washed, the nucleus pellet was treated with extraction buffer. The supernatant was collected for nuclear protein after centrifugation at 14,000 rpm for 5 minutes at 4° C.
Without wishing to be bound by this theory, one activity of butyrate could be related to inhibition of HDAC. Sodium butyrate inhibits the class I and class II histone deacetylases (HDACs). To test this possibility, HDAC activity was examined in the skeletal muscle of mice at 16 weeks on HFD (FIG. 7G). The assay was conducted with the nuclear extracts of muscle samples. […]

Series [2] has as its system C57BL/6J mice on high fat diet. In words: Butyrate at 2.5% w/w in HFD. The format is in vivo, mouse. The conditions noted are these: butyrate 2.5% w/w in HFD. As for the experimental part:
Sodium butyrate (#303410, Sigma) was tested at two dosages, 5% and 2.5% w/w in HFD. The metabolic effects presented above were from 5%. […] Insulin sensitivity at 12 weeks as indicated by insulin tolerance test (ITT) and glucose tolerance test (GTT) at 13 weeks was higher in the butyrate group than that of the control group (FIGS. 12C and 12D). For the glucose tolerance test, after an overnight fast, 2.5 g/kg glucose was injected intraperitoneally. Blood glucose was measured as described above at 0, 30, 60 and 120 min after injection. […] show values as the means±SE (N=8 in each group), and * indicates p<0.05.

The test system of a further series is islet cells. The conditions noted are these: isolated rat islet cells; cited from earlier work.
[3] abbreviates: butyrate 5% w/w in HFD 13 weeks, immunoblot.
Where [4] appears, read: butyrate 5% w/w in HFD 13 weeks, qRT-PCR.

`CCCC(=O)[O-].[Na+]` [sodium butyrate]: the “size of brown adipocytes” value in series [1] (butyrate 5% w/w in HFD 13 weeks vs control, H&E) was “much smaller”. Further, in series [1] (setting [3]), the “PGC-1α protein in brown fat” value is on record as “also increased” and the “UCP-1 protein in brown fat” value is reported as “also increased”. In addition, in series [1] (setting [4]), the “PGC-1α mRNA in BAT” value was “increased” and the “UCP-1 mRNA in BAT” value is listed as “increased”. The “HDAC activity in skeletal muscle, reduction” value with HDAC was found to be 50%. Also, in series [2] (12 weeks), the body weight entry was “reduced” and the “insulin sensitivity by insulin tolerance test (ITT)” value is listed as “higher”. Further, the fat content entry in series [2] (12 weeks, NMR) is recorded as “reduced”. The “insulin sensitivity by glucose tolerance test (GTT)” value in series [2] (13 weeks, 2.5 g/kg glucose i.p.) is on record as “higher”. Moreover, in the series on islet cells, the “cell viability (islet cells)” value is “decrease” and the “insulin release in the presence of glucose (islet cells)” value is on record as “decrease”.
